# Test results taken from PubChem BioAssay (NCI).
#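 Where inhibition never reached the appropriate level, the endpoint shown equals the highest concentration tested. Otherwise, values were interpolated linearly from a five-concentration, 48-hour dose response in 96-well plates. TGI denotes the concentration required for complete inhibition of growth.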
# What was measured:
# Assay in all cases: DTP human tumour cell line panel, 48 h
# [1] = tested on: NCI-H460 lung
# [2] = tested on: OVCAR-8 ovarian
# [3] = tested on: HCT-116 colon
# [4] = tested on: ACHN renal
# [5] = tested on: SK-OV-3 ovarian
# [6] = tested on: UO-31 renal
# [7] = tested on: SN12C renal
# [8] = tested on: SK-MEL-5 melanoma
# [9] = tested on: NCI-H23 lung
# [10] = tested on: HT29 colon
# [11] = tested on: RPMI-8226 leukemia
# [12] = tested on: OVCAR-3 ovarian
# [13] = tested on: OVCAR-5 ovarian
# [14] = tested on: SW-620 colon
# [15] = tested on: MOLT-4 leukemia
# [16] = tested on: CCRF-CEM leukemia
# [17] = tested on: XF 498 CNS
# [18] = tested on: MALME-3M melanoma
# [19] = tested on: KM12 colon
# [20] = tested on: NCI-H226 lung
# [21] = tested on: EKVX NSCLC
# [22] = tested on: SF-295 CNS
# [23] = tested on: M14 melanoma
# [24] = tested on: NCI-H522 lung
# [25] = tested on: 786-0 renal
# [26] = tested on: K-562 leukemia
# [27] = tested on: CAKI-1 renal
# [28] = tested on: HCC-2998 colon
# [29] = tested on: M19-MEL melanoma
# [30] = tested on: IGROV1 ovarian
# [31] = tested on: KM20L2 colon
# [32] = tested on: SNB-75 CNS
# [33] = tested on: DMS 273 small cell lung
# [34] = tested on: A549 NSCLC
# [35] = tested on: U251 CNS
# [36] = tested on: LOX IMVI melanoma
# [37] = tested on: DLD-1 colon
# [38] = tested on: LXFL 529 NSCLC
# [39] = tested on: SNB-78 CNS
# [40] = tested on: SF-268 CNS
# [41] = tested on: UACC-257 melanoma
# [42] = tested on: HL-60(TB) leukemia
# [43] = tested on: HOP-62 NSCLC
# [44] = tested on: UACC-62 melanoma
# [45] = tested on: A498 renal
# [46] = tested on: DMS 114 small cell lung
# [47] = tested on: COLO 205 colon
# [48] = tested on: SNB-19 CNS
# [49] = tested on: HCT-15 colon
# [50] = tested on: SF-539 CNS
# [51] = tested on: SK-MEL-2 melanoma
# [52] = tested on: TK-10 renal
# [53] = tested on: RXF 393 renal
# [54] = tested on: SK-MEL-28 melanoma
# [55] = tested on: SR leukemia
# [56] = tested on: OVCAR-4 ovarian
# [57] = tested on: HOP-92 NSCLC
# [58] = tested on: HOP-18 NSCLC
compound,measurement,setting,value
CC(C)OC(=O)c1cccnc1/C=N/O,TGI,[1],> 100 µM
same,TGI,[2],> 100 µM
same,TGI,[3],> 100 µM
same,TGI,[4],> 100 µM
same,TGI,[5],> 100 µM
same,TGI,[6],> 100 µM
same,TGI,[7],> 100 µM
same,TGI,[8],> 100 µM
same,TGI,[9],> 100 µM
same,TGI,[10],> 100 µM
same,TGI,[11],> 100 µM
same,TGI,[12],> 100 µM
same,TGI,[13],> 100 µM
same,TGI,[14],> 100 µM
same,TGI,[15],> 100 µM
same,TGI,[16],> 100 µM
same,TGI,[17],> 100 µM
same,TGI,[18],> 100 µM
same,TGI,[19],> 100 µM
same,TGI,[20],> 100 µM
same,TGI,[21],> 100 µM
same,TGI,[22],> 100 µM
same,TGI,[23],> 100 µM
same,TGI,[24],> 100 µM
same,TGI,[25],> 100 µM
same,TGI,[26],> 100 µM
same,TGI,[27],> 100 µM
same,TGI,[28],> 100 µM
same,TGI,[29],> 100 µM
same,TGI,[30],> 100 µM
same,TGI,[31],> 100 µM
same,TGI,[32],> 100 µM
same,TGI,[33],> 100 µM
same,TGI,[34],> 100 µM
same,TGI,[35],> 100 µM
same,TGI,[36],> 100 µM
same,TGI,[37],> 100 µM
same,TGI,[38],> 100 µM
same,TGI,[39],> 100 µM
same,TGI,[40],> 100 µM
same,TGI,[41],> 100 µM
same,TGI,[42],> 100 µM
same,TGI,[43],> 100 µM
same,TGI,[44],> 100 µM
same,TGI,[45],> 100 µM
same,TGI,[46],> 100 µM
same,TGI,[47],> 100 µM
same,TGI,[48],> 100 µM
same,TGI,[49],> 100 µM
same,TGI,[50],> 100 µM
same,TGI,[51],> 100 µM
same,TGI,[52],> 100 µM
C=CNC(=S)n1nc(-c2ccccc2NC(=O)C(F)(F)F)c(=O)n(C(=S)NC=C)c1=S,TGI,[53],> 100 µM
same,TGI,[54],> 100 µM
same,TGI,[1],47.3 µM
same,TGI,[2],> 100 µM
same,TGI,[3],> 100 µM
same,TGI,[4],> 100 µM
same,TGI,[5],73 µM
same,TGI,[6],73.6 µM
same,TGI,[7],> 100 µM
same,TGI,[8],35.5 µM
same,TGI,[9],> 100 µM
same,TGI,[10],60.1 µM
same,TGI,[12],28.8 µM
same,TGI,[13],> 100 µM
same,TGI,[14],> 100 µM
same,TGI,[15],> 100 µM
same,TGI,[16],> 100 µM
same,TGI,[17],83 µM
same,TGI,[18],> 100 µM
same,TGI,[19],> 100 µM
same,TGI,[55],73.7 µM
same,TGI,[20],86.6 µM
same,TGI,[21],69.3 µM
same,TGI,[22],81.6 µM
same,TGI,[23],> 100 µM
same,TGI,[24],60.5 µM
same,TGI,[25],> 1 µM
same,TGI,[56],19.6 µM
same,TGI,[26],> 100 µM
same,TGI,[27],> 100 µM
same,TGI,[57],36.5 µM
same,TGI,[28],> 100 µM
same,TGI,[29],> 100 µM
same,TGI,[30],> 100 µM
same,TGI,[32],62.8 µM
same,TGI,[33],> 100 µM
same,TGI,[34],> 1 µM
same,TGI,[35],> 100 µM
same,TGI,[36],> 100 µM
same,TGI,[37],49.3 µM
same,TGI,[38],> 100 µM
same,TGI,[39],> 100 µM
same,TGI,[40],46 µM
same,TGI,[43],86 µM
same,TGI,[44],> 100 µM
same,TGI,[46],28.9 µM
same,TGI,[48],> 100 µM
same,TGI,[49],> 100 µM
same,TGI,[50],> 1 µM
same,TGI,[51],> 100 µM
same,TGI,[52],> 100 µM
CCCCc1c2c(nc3c1CCCC3=O)CCCC2,TGI,[54],> 100 µM
same,TGI,[1],> 100 µM
same,TGI,[2],> 100 µM
same,TGI,[3],> 100 µM
same,TGI,[4],> 100 µM
same,TGI,[5],> 100 µM
same,TGI,[6],> 100 µM
same,TGI,[7],> 100 µM
same,TGI,[8],> 100 µM
same,TGI,[9],> 100 µM
same,TGI,[10],> 100 µM
same,TGI,[11],> 100 µM
same,TGI,[12],> 100 µM
same,TGI,[14],> 100 µM
same,TGI,[15],> 100 µM
same,TGI,[16],> 100 µM
same,TGI,[17],> 100 µM
same,TGI,[18],98.4 µM
same,TGI,[19],> 100 µM
same,TGI,[55],> 100 µM
same,TGI,[20],65.6 µM
same,TGI,[21],> 100 µM
same,TGI,[22],> 100 µM
same,TGI,[23],> 100 µM
same,TGI,[24],> 100 µM
same,TGI,[25],> 100 µM
same,TGI,[26],> 100 µM
same,TGI,[28],> 100 µM
same,TGI,[29],> 100 µM
same,TGI,[30],> 100 µM
same,TGI,[31],> 100 µM
same,TGI,[33],> 100 µM
same,TGI,[34],> 100 µM
same,TGI,[35],> 100 µM
same,TGI,[36],> 100 µM
same,TGI,[38],> 100 µM
same,TGI,[40],> 100 µM
same,TGI,[42],> 100 µM
same,TGI,[43],> 100 µM
same,TGI,[46],> 100 µM
same,TGI,[47],> 100 µM
same,TGI,[48],> 100 µM
same,TGI,[49],> 100 µM
same,TGI,[50],> 100 µM
O=C1C(Cl)C(c2ccc([N+](=O)[O-])cc2)N1n1cnc2ccccc2c1=O (stereo unspecified),TGI,[53],72.1 µM
same,TGI,[54],> 100 µM
same,TGI,[1],> 100 µM
same,TGI,[2],> 100 µM
same,TGI,[3],> 100 µM
same,TGI,[4],> 100 µM
same,TGI,[5],50.3 µM
same,TGI,[6],> 100 µM
same,TGI,[58],> 100 µM
same,TGI,[7],> 100 µM
same,TGI,[8],> 100 µM
same,TGI,[9],> 100 µM
same,TGI,[10],> 100 µM
same,TGI,[12],> 100 µM
same,TGI,[13],> 100 µM
same,TGI,[14],> 100 µM
same,TGI,[15],> 100 µM
same,TGI,[16],> 100 µM
same,TGI,[17],> 100 µM
same,TGI,[18],> 100 µM
same,TGI,[19],> 100 µM
same,TGI,[20],> 100 µM
same,TGI,[21],85.6 µM
same,TGI,[22],68.9 µM
same,TGI,[23],> 100 µM
same,TGI,[24],> 100 µM
same,TGI,[25],> 100 µM
same,TGI,[56],25.2 µM
same,TGI,[26],> 100 µM
same,TGI,[27],> 100 µM
same,TGI,[28],> 100 µM
same,TGI,[30],> 100 µM
same,TGI,[31],> 100 µM
same,TGI,[32],39 µM
same,TGI,[33],> 100 µM
same,TGI,[34],> 100 µM
same,TGI,[35],> 100 µM
same,TGI,[36],> 100 µM
same,TGI,[37],> 100 µM
same,TGI,[38],> 100 µM
same,TGI,[39],88.1 µM
same,TGI,[40],97.3 µM
same,TGI,[41],> 100 µM
same,TGI,[43],> 100 µM
same,TGI,[44],> 100 µM
same,TGI,[46],> 100 µM
same,TGI,[47],> 100 µM
same,TGI,[48],> 100 µM
same,TGI,[49],> 100 µM
same,TGI,[51],> 100 µM
same,TGI,[52],83.2 µM
Cn1c2c(c3ccccc31)CCN(CCCN1CCN(c3ccccc3)CC1)C2=O,TGI,[53],32.6 µM
same,TGI,[54],36.7 µM
same,TGI,[2],59.6 µM
same,TGI,[3],29.8 µM
same,TGI,[4],44.7 µM
same,TGI,[5],37 µM
same,TGI,[6],30.3 µM
same,TGI,[58],32.9 µM
same,TGI,[7],46.7 µM
same,TGI,[8],42.1 µM
same,TGI,[9],46.8 µM
same,TGI,[10],26.7 µM
same,TGI,[11],36.7 µM
same,TGI,[14],55.7 µM
same,TGI,[15],36.7 µM
same,TGI,[16],65.7 µM
same,TGI,[17],27.8 µM
same,TGI,[21],77.6 µM
same,TGI,[22],37.8 µM
same,TGI,[23],37 µM
same,TGI,[24],30.9 µM
same,TGI,[25],39.1 µM
same,TGI,[26],38.3 µM
same,TGI,[27],30.8 µM
same,TGI,[57],31.7 µM
same,TGI,[29],38.2 µM
same,TGI,[30],38 µM
same,TGI,[31],25.4 µM
same,TGI,[33],52.4 µM
same,TGI,[34],61 µM
same,TGI,[35],30.2 µM
same,TGI,[36],60 µM
same,TGI,[37],46.6 µM
same,TGI,[38],36.3 µM
same,TGI,[40],> 100 µM
same,TGI,[42],33.6 µM
same,TGI,[44],37.4 µM
same,TGI,[45],32.8 µM
same,TGI,[46],38.1 µM
same,TGI,[47],37 µM
same,TGI,[49],50 µM
same,TGI,[50],31.7 µM
same,TGI,[52],35.4 µM
